Structures are written as SMILES. Like-named read-outs stand apart in the source and are kept apart here.

Description: The solubility of iloprost at 100 μg/mL was evaluated at five different pH levels by visual inspection and HPLC-UV analysis. A stock solution of Iloprost was prepared in ethanol at 1 mg/mL. The stock solution was diluted 10-fold in each buffer and mixed well. The buffered solutions were visually inspected for any precipitation. The buffered solutions were filtered with 0.45 μm nylon filters prior to analysis by HPLC.

For `CC#CCC(C)[C@H](O)/C=C/[C@@H]1[C@H]2C/C(=C/CCCC(=O)O)C[C@H]2C[C@H]1O` (stereo partly shown) [Iloprost], the “Final pH” value is reported as 5.08 (100 μg/mL Iloprost in 10 mM Acetate, initial pH 5.00); 2.99 (100 μg/mL Iloprost in 10 mM Citrate, initial pH 2.89); 6.36 (100 μg/mL Iloprost in 10 mM Phosphate, initial pH 6.23); 7.42 (100 μg/mL Iloprost in 10 mM Phosphate, initial pH 7.27); 8.59 (100 μg/mL Iloprost in 10 mM Phosphate, initial pH 8.60). The “solubility by chromatographic analysis” value (pH 2.89) is listed as “potential solubility issues below pH 6”. Further, the visual solubility result (pH 2.89) is listed as “No visual solubility issues”.

(Values after US20230263807A1, “TREPROSTINIL ILOPROST COMBINATION THERAPY” (United Therapeutics Corporation, priority 2022, published 2023).)
